Assay results published in the supplement of paper PMC11061612.

Tests used:
[1] = test system: KINGS-1 (Low Grade Glioma); assay: combination Emax (second highest fraction inhibited in the dose matrix, 72 h); higher = more inhibition; extreme values may be limits of the assay
Procedure, shortened: (§1)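 Cell lines grown in DMEM/F12 or RPMI with 10% FBS were plated in 1536-well plates and held 24 hours at 37°C, 5% CO2 before 72 hours of exposure to two-drug dose matrices, with DMSO typically at 0.2%. CellTiter-Glo 2.0 luminescence gave viability, which was converted to inhibition. Vehicle wells were set to 0 and blank wells to 1. Combination Emax is the second-highest inhibition in the matrix, and Bliss excess is the observed combination effect minus the expected EA + EB − EA·EB, where EA and EB are the single-agent effects.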

[2] = test system: LC4-1 (B-Lymphoblastic Leukemia); assay: as above
Procedure, shortened: as §1

A704 (Kidney Carcinoma) = assay: as above
Procedure, shortened: as §1

IMR-5 (Neuroblastoma) = assay: as above
Procedure, shortened: as §1

[3] = test system: KYSE-150 (Esophageal Squamous Cell Carcinoma); assay: as above
Procedure, shortened: as §1

[4] = test system: NCI-N87 (Gastric Carcinoma); assay: as above
Procedure, shortened: as §1

[5] = test system: LOU-NH91 (Squamous Cell Lung Carcinoma); assay: as above
Procedure, shortened: as §1

[6] = test system: HSC-2 (Oral Cavity Carcinoma); assay: as above
Procedure, shortened: as §1

EW-3 (Ewing's Sarcoma) = assay: as above
Procedure, shortened: as §1

[7] = test system: KYSE-50 (Esophageal Squamous Cell Carcinoma); assay: as above
Procedure, shortened: as §1

[8] = test system: EMC-BAC-2 (Non-Small Cell Lung Carcinoma); assay: as above
Procedure, shortened: as §1

[9] = test system: MFE-319 (Endometrial Carcinoma); assay: as above
Procedure, shortened: as §1

RPMI-7951 (Melanoma) = assay: as above
Procedure, shortened: as §1

[10] = test system: KP-2 (Pancreatic Carcinoma); assay: Bliss excess, mean over the matrix (fraction); higher = more synergy
Procedure, shortened: as §1

[11] = test system: NCI-H2347 (Lung Adenocarcinoma); assay: as above
Procedure, shortened: as §1

[12] = test system: KLE (Endometrial Carcinoma); assay: as above
Procedure, shortened: as §1

[13] = test system: SCC-3 (B-Cell Non-Hodgkin's Lymphoma); assay: as above
Procedure, shortened: as §1

[14] = test system: JHH-7 (Hepatocellular Carcinoma); assay: as above
Procedure, shortened: as §1

[15] = test system: HSC-2 (Oral Cavity Carcinoma); assay: as above
Procedure, shortened: as §1

[16] = test system: ASH-3 (Thyroid Gland Carcinoma); assay: as above
Procedure, shortened: as §1
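Wherever Bliss excess, mean over the matrix is given: after 72 h of two-drug dosing.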

Structure (SMILES)	combination Emax [1]	combination Emax [2]	combination Emax (A704 (Kidney Carcinoma))	combination Emax (IMR-5 (Neuroblastoma))	combination Emax [3]	combination Emax [4]	combination Emax [5]	combination Emax [6]	combination Emax (EW-3 (Ewing's Sarcoma))	combination Emax [7]	combination Emax [8]	combination Emax [9]	combination Emax (RPMI-7951 (Melanoma))	Bliss excess [10]	Bliss excess [11]	Bliss excess [12]	Bliss excess [13]	Bliss excess [14]	Bliss excess [15]	Bliss excess [16]
CC1(C)CCC(CN2CCN(c3ccc(C(=O)NS(=O)(=O)c4ccc(NCC5CCOCC5)c([N+](=O)[O-])c4)c(Oc4cnc5[nH]ccc5c4)c3)CC2)=C(c2ccc(Cl)cc2)C1 [Venetoclax] + C[C@@H]1COCCN1C2=NC(=NC(=C2)C3(CC3)[S@](=N)(=O)C)C4=C5C=CNC5=NC=C4 [AZD6738] (first compound max 1 µM, 7x7, partner max 10 µM)	0.344	1	0.48	1	0.628	0.736	0.411	0.824	0.844	0.719	0.612	0.837	0.887	-0.0225	-0.0454	-0.0538	0.013	-0.0318	0.0275	-0.131
CCN(CCO)CCCOc1ccc2c(Nc3cc(CC(=O)Nc4cccc(F)c4)[nH]n3)ncnc2c1 [AZD2811] + C[C@@H]1COCCN1C2=NC(=NC(=C2)C3(CC3)[S@](=N)(=O)C)C4=C5C=CNC5=NC=C4 [AZD6738] (first compound max 1 µM, 7x7, partner max 10 µM)	0.302	0.97	0.43	1	0.533	0.744	0.27	0.68	0.724	0.507	0.459	0.668	0.856	-0.0084	-0.0319	-0.0262	0.0411	-0.048	-0.0424	-0.0367
CN(CCO)CC[C@H](CSc1ccccc1)Nc1ccc(S(=O)(=O)NC(=O)c2ccc(N3CCC([C@@H](O)c4ccccc4-c4ccc(Cl)cc4)CC3)cc2)cc1S(=O)(=O)C(F)(F)F [AZD4320] + Cn1cnc2c(F)c(Nc3ccc(Br)cc3Cl)c(C(=O)NOCCO)cc21 [Selumetinib] (first compound max 1 µM, 7x7, partner max 3 µM)	0.481	1	0.642	0.994	0.359	0.604	0.662	0.768	0.906	0.239	0.416	0.522	0.526	0.0496	0.0288	0.0087	0.0222	-0.0214	0.0195	-0.026
CC(=O)c1c(C)c2cnc(Nc3ccc(N4CCNCC4)cn3)nc2n(C2CCCC2)c1=O [Palbociclib] + Cc1c2c(nn1C)CSCc1cc(n(C)n1)CSc1cc(c3ccccc3c1)OCCCc1c(C(=O)O)n(C)c3c-2c(Cl)ccc13 [AZD5991] (first compound max 10 µM, 7x7, partner max 1 µM)	0.258	0.937	0.595	0.902	0.585	0.417	0.35	0.696	0.772	0.353	0.643	0.887	0.732	-0.0445	-0.0677	-0.082	0.0284	-0.0346	-0.0997	-0.0324
Cc1c2c(nn1C)CSCc1cc(n(C)n1)CSc1cc(c3ccccc3c1)OCCCc1c(C(=O)O)n(C)c3c-2c(Cl)ccc13 [AZD5991] + C[C@@H]1COCCN1C2=NC(=NC(=C2)C3(CC3)[S@](=N)(=O)C)C4=C5C=CNC5=NC=C4 [AZD6738] (first compound max 1 µM, 7x7, partner max 10 µM)	0.198	0.981	0.487	1	0.543	0.688	0.426	0.765	0.892	0.643	0.862	0.932	0.98	0.0446	-0.0489	-0.0021	0.0538	0.0642	-0.0459	0.0554
Cc1c2c(nn1C)CSCc1cc(n(C)n1)CSc1cc(c3ccccc3c1)OCCCc1c(C(=O)O)n(C)c3c-2c(Cl)ccc13 [AZD5991] + C[C@@H](Nc1cc(F)cc(F)c1)c1cc(C(=O)N(C)C)cc2c(=O)cc(N3CCOCC3)oc12 [AZD8186] (first compound max 1 µM, 7x7, partner max 3 µM)	0.366	0.949	0.496	0.955	0.281	0.442	0.371	0.963	0.636	0.317	0.632	0.401	0.939	0.0193	0.0251	0.0077	-0.0036	-0.0439	0.0042	0.0027
Cn1cnc2c(F)c(Nc3ccc(Br)cc3Cl)c(C(=O)NOCCO)cc21 [Selumetinib] + C[C@@H]1COCCN1C2=NC(=NC(=C2)C3(CC3)[S@](=N)(=O)C)C4=C5C=CNC5=NC=C4 [AZD6738] (first compound max 10 µM, 7x7, partner max 10 µM)	0.292	0.91	0.391	1	0.622	0.632	0.353	0.569	0.822	0.573	0.557	0.752	0.873	0.121	0.0844	0.01	0.0368	-0.0073	-0.0553	0.0892
CC1(C)CCC(CN2CCN(c3ccc(C(=O)NS(=O)(=O)c4ccc(NCC5CCOCC5)c([N+](=O)[O-])c4)c(Oc4cnc5[nH]ccc5c4)c3)CC2)=C(c2ccc(Cl)cc2)C1 [Venetoclax] + Cc1cc2ncnn2cc1Nc1ncc2c(n1)n(C1CCOCC1)c(=O)n2C [AZD7648] (first compound max 1 µM, 7x7, partner max 10 µM)	0.329	1	0.32	0.282	0.572	0.354	0.264	0.304	0.735	0.217	0.271	0.26	0.334	-0.0577	-0.0665	-0.0432	-0.0016	-0.0446	-0.0177	-0.0732
Cn1cnc2c(F)c(Nc3ccc(Br)cc3Cl)c(C(=O)NOCCO)cc21 [Selumetinib] + CC(C)n1c(=O)n(C)c2cnc3cc(F)c(-c4ccc(OCCCN5CCCCC5)nc4)cc3c21 [AZD1390] (first compound max 10 µM, 7x7, partner max 0.3 µM)	0.232	0.158	0.246	0.173	0.259	0.3	0.219	0.248	0.104	0.21	0.278	0.154	0.307	-0.008	-0.0275	-0.0057	0.0273	-0.0517	-0.0212	-0.0553
COc1cc2ncnc(Nc3ccc(F)c(Cl)c3)c2cc1OCCCN1CCOCC1 [Gefitinib] + CC(C)n1c(=O)n(C)c2cnc3cc(F)c(-c4ccc(OCCCN5CCCCC5)nc4)cc3c21 [AZD1390] (first compound max 10 µM, 7x7, partner max 0.3 µM)	0.113	0.221	0.439	0.123	0.353	0.845	0.404	0.555	0.254	0.334	0.32	0.0734	0.0802	-0.0438	-0.0771	-0.0548	-0.0418	-0.0451	-0.0442	-0.0537
